Reference: patent publication US20240226001A1, “Contact Lenses And Other Eye-Contacting Matrices Carrying Mitochondrially-Targeted Antioxidants” (Mitotech S.A., priority 2015, published 2024)
Where “and” joins values, the source holds several entries; their conditions need not be identical. Equal values may be shown once. Read-outs that look alike come from different tables or passages of the source.

Columns and labels:
rabbit cornea [1] = assay: SkQ1 concentration in rabbit cornea after instillation of eye drops (control experiment); type: in vivo; conditions: eye drops containing 1.55 μg/mL of SkQ1, FIG. 2B
Description: Thus SkQ1 was efficiently transferred from the experimental lens into the eye. In the control experiment, SkQ1 was administered into the rabbit eye by instillation of eye drops containing 1.55 μg/mL of SkQ1. At certain time points, samples of rabbit cornea were taken and analyzed for SkQ1 content using LCMS/MS. […] Thus, the mode of accumulation of SkQ1 in the cornea is different when SkQ1 is administered via contact lenses (compare graphs on FIG. 2A and FIG. 2B).

[2] = Adsorption of SkQ1 from saline on soft disposable contact lens, retention in saline, extraction with 50% acetonitrile (Example 2); type: physicochemical
Description: Lens pre-wash: soft disposable contact lenses were thoroughly rinsed with saline solution (0.9% NaCl) and incubated in this solution overnight. Preparation of 2.5 μM SkQ1 solution: 4 mL of saline solution was placed in dark glass vials. 40 μL of 500 μM SkQ1 solution in 50% ethanol was added into each vial yielding 2.5 μM SkQ1 solution. Solution in the vial was thoroughly mixed and then incubated overnight to yield A1 series solution. Then aliquots of A1 series were collected from these vials.
During the experiment a pre-washed contact lens was placed into a glass vial with 2.5 uM SkQ1 solution and incubated at +4° C.-+8 °C for 4 days. Then the contact lenses were removed from the 2.5 μM SkQ1 solution, rinsed with saline solution and placed into fresh saline solution and incubated overnight at +4° C.-+8° C. to yield A2 series solution. Aliquots of the A2 series solution were collected from the vials where lenses were incubated in 2.5 μM SkQ1 solution.
After the above described overnight lens incubation in saline solution, lenses were placed in vials containing 500 μL of 50% acetonitrile and mixed during 1 hour at +25° C. Then aliquots of this acetonitrile solution was collected (A3 series).
The content of SkQ1 in the collected aliquots was analyzed using LCMS/MS.

[3] = SkQ1 content of control lenses (intact lenses kept in saline solution) (Example 3); type: physicochemical; conditions: for SkQ1 conc. in control lenses: 50% acetonitrile extract
Description: (§1) The experiment was performed as follows: contact lenses were supplemented with SkQ1 as described in Example 2, then some lenses were placed on rabbit eyes and some lenses left aside in saline solution. At certain time points (see below in the table 3) contact lenses were removed from rabbits' eyes (experimental lenses) or saline solution (control lenses) and such rabbits were euthanized and their cornea were taken for SkQ1 content analysis. Then SkQ1 was extracted from the collected lenses and cornea samples using 50% acetonitrile solution and the SkQ1 amount in the extracts was determined using LCMS/MS.

rabbit eyes = assay: SkQ1 content of experimental lenses taken from rabbits eyes (Example 3); type: in vivo; conditions: for SkQ1 conc. in experimental lenses: 50% acetonitrile extract; for SkQ1 conc. in experimental lenses / SkQ1 amount in experimental lenses: single samples; for Average SkQ1 amount in experimental lenses: average of 2 samples
Description: as §1

rabbit cornea [4] = assay: SkQ1 concentration in rabbit cornea after SkQ1-supplemented contact lens (Example 3); type: in vivo; conditions: for SkQ1 nM in cornea / SkQ1 ng per g of cornea / SkQ1 concentration in the cornea (extract): single samples
Description: as §1

[5] = as above; type: in vivo; conditions: rabbit; for concentration at 30 min / concentration at 1 h / concentration at 2 h: topical; for concentration at 30 min: 30 min after lens placement; for concentration at 1 h: 1 hour after lens placement; for concentration at 2 h: 2 hours after lens placement
Description: as §1

[6] = Adsorption of MTCs on a matrix from PBS versus 50% ethanol, HPLC (Example 4); type: physicochemical; conditions: 250 nM solution in dark glass vials; adsorption in 50% ethanol negligible
Description: It must be noted that SkQ3 differs from SkQ1 by the antioxidant moiety (A moiety in the formula I—see above), while SkB1 differs from SkQ1 by both the linker (L moiety) and targeting moiety (B moiety). So in this experiment, variations in all 3 parts of MTC molecule were successfully used.
The experiment was conducted as follows: 990 μl of phosphate buffered saline (PBS) or 50% water-ethanol solution (SkQ adsorption in 50% ethanol is negligible) was placed in dark glass chromatography vials (Waters, p/n 186000847c). 10 ul of 25 μM SkQ solution in ethanol was then added to each vial, yielding a 250 nM solution. The vials were vigorously mixed and the SkQ concentration in each vial (100 μl samples) was analyzed by HPLC using a Luna C 18 (2), Phenomenex, 250 MM '4.6 mm column with a sorbent particle size of 5 μm. The liquid phase used was acetonitrile:water (56:44), and the flow speed was 1 ml/min. at 25° C. UV detection was performed at A260.

[7] = A1 series: 2.5 μM SkQ1 saline solution before lens
[8] = A2 series: saline solution after lens incubation
[9] = A3 series: 50% acetonitrile extract of lens, 1 hour at +25° C.
[10] = cornea (50% acetonitrile extract), single samples, read-out: SkQ1 concentration in the cornea (extract)
[11] = cornea, average of 2 samples, read-out: SkQ1 Aver. nM in cornea
[12] = cornea, single samples, read-out: SkQ1 nM in cornea
[13] = cornea, single samples, read-out: SkQ1 ng per g of cornea

CC1=C(C)C(=O)C(CCCCCCCCCC[P+](c2ccccc2)(c2ccccc2)c2ccccc2)=CC1=O [SkQ1]
Time of maximum SkQ1 concentration in cornea (rabbit cornea [1]): 30 min
Calculated total SkQ1 amount in the vial, M ± SE (n = 9) [2, 7]: 3.69 µg and 3.69 ± 0.11 µg
SkQ1 concentration found, M ± SE (n = 9) [2, 7]: 0.97 ± 0.03 µg/mL
Calculated total SkQ1 amount in the vial, M ± SE (n = 9) [2, 8]: 0.19 µg and 0.19 ± 0.07 µg
SkQ1 concentration found, M ± SE (n = 9) [2, 8]: 0.1 ± 0.04 µg/mL
Calculated total SkQ1 amount in the vial (=total SkQ1 amount extracted from the lens), M ± SE (n = 9) [2, 9]: 2.5 µg and 2.5 ± 0.08 µg
SkQ1 concentration found, M ± SE (n = 9) [2, 9]: 9.9 ± 0.33 µg/mL
SkQ1 amount in control lenses ([3]; 30 min in saline): 4.611 nmoles/sample
SkQ1 conc. in control lenses ([3]; 30 min in saline): 5.690 µg/mL
SkQ1 concentration on intact control lenses left in saline over time ([3]; 30 min to 6 hours, FIG. 1): stayed stable
SkQ1 amount in control lenses ([3]; 1 hour in saline): 4.966 nmoles/sample
SkQ1 conc. in control lenses ([3]; 1 hour in saline): 6.129 µg/mL
SkQ1 amount in control lenses ([3]; 2 hours in saline): 5.107 nmoles/sample
SkQ1 conc. in control lenses ([3]; 2 hours in saline): 6.302 µg/mL
SkQ1 amount in control lenses ([3]; 6 hours in saline): 4.377 nmoles/sample
SkQ1 conc. in control lenses ([3]; 6 hours in saline): 5.052 µg/mL
SkQ1 conc. in experimental lenses (rabbit eyes; 30 min on rabbit eye): 2.868 µg/mL and 3.006 µg/mL
Average SkQ1 amount in experimental lenses (rabbit eyes; 30 min on rabbit eye): 2.38 nmoles/sample
SkQ1 amount in experimental lenses (rabbit eyes; 30 min on rabbit eye): 2.324 nmoles/sample and 2.436 nmoles/sample
Amount of SkQ1 in the contact lens placed on the eye over time (rabbit eyes; 30 min to 6 hours, FIG. 1): decreased with time
SkQ1 conc. in experimental lenses (rabbit eyes; 1 hour on rabbit eye): 3.339 µg/mL and 3.200 µg/mL
Average SkQ1 amount in experimental lenses (rabbit eyes; 1 hour on rabbit eye): 2.65 nmoles/sample
SkQ1 amount in experimental lenses (rabbit eyes; 1 hour on rabbit eye): 2.706 nmoles/sample and 2.593 nmoles/sample
SkQ1 conc. in experimental lenses (rabbit eyes; 2 hours on rabbit eye): 2.77 µg/mL and 2.854 µg/mL
Average SkQ1 amount in experimental lenses (rabbit eyes; 2 hours on rabbit eye): 2.279 nmoles/sample
SkQ1 amount in experimental lenses (rabbit eyes; 2 hours on rabbit eye): 2.244 nmoles/sample and 2.313 nmoles/sample
SkQ1 conc. in experimental lenses (rabbit eyes; 6 hours on rabbit eye): 1.448 µg/mL and 1.229 µg/mL
Average SkQ1 amount in experimental lenses (rabbit eyes; 6 hours on rabbit eye): 1.114 nmoles/sample
SkQ1 amount in experimental lenses (rabbit eyes; 6 hours on rabbit eye): 1.174 nmoles/sample and 1.053 nmoles/sample
SkQ1 nM in cornea (rabbit cornea [4]; 30 min after lens placement): 4.96 nM
SkQ1 ng per g of cornea (rabbit cornea [4]; 30 min after lens placement): 3.06 ng per g of cornea
SkQ1 concentration in the cornea (extract) (rabbit cornea [4]; 30 min after lens placement): 0.51 ng/mL
SkQ1 nM in cornea (rabbit cornea [4]; 1 hour after lens placement): 14.30 nM
SkQ1 ng per g of cornea (rabbit cornea [4]; 1 hour after lens placement): 8.82 ng per g of cornea
SkQ1 concentration in the cornea (extract) (rabbit cornea [4]; 1 hour after lens placement): 1.47 ng/mL
SkQ1 nM in cornea (rabbit cornea [4]; 2 hours after lens placement): 13.32 nM
SkQ1 ng per g of cornea (rabbit cornea [4]; 2 hours after lens placement): 8.22 ng per g of cornea
SkQ1 concentration in the cornea (extract) (rabbit cornea [4]; 2 hours after lens placement): 1.37 ng/mL
Concentration of SkQ1 in the rabbits' eye cornea over time (rabbit cornea [4]; administered via contact lens, FIG. 2A): gradually increased
concentration at 30 min [5, 10]: 0.64 ng/mL
concentration at 1 h [5, 10]: 1.56 ng/mL
concentration at 2 h [5, 10]: 1.46 ng/mL
concentration at 6 h ([5]; cornea, other: SkQ1-supplemented contact lens placed on the eye, 6 hours after lens placement, average of 2 samples, read-out: SkQ1 Aver. nM in cornea): 17.8 nM
concentration at 30 min [5, 11]: 5.59 nM
concentration at 30 min [5, 12]: 6.22 nM
concentration at 30 min [5, 13]: 3.84 ng/g
concentration at 1 h [5, 11]: 14.7 nM
concentration at 1 h [5, 12]: 15.2 nM
concentration at 1 h [5, 13]: 9.36 ng/g
concentration at 2 h [5, 11]: 13.8 nM
concentration at 2 h [5, 12]: 14.2 nM
concentration at 2 h [5, 13]: 8.76 ng/g
Concentration in PBS as % of the concentration in 50% ethanol [6]: 51.7%

CC1=C(C)C(=O)C(CCCCCCCCCC[P+](c2ccccc2)(c2ccccc2)c2ccccc2)=C(C)C1=O [SkQ3]
Concentration in PBS as % of the concentration in 50% ethanol [6]: 29.6%

COc1ccc2c(CC(=O)OCCCCCCCC3=CC(=O)C(C)=C(C)C3=O)c3[n+](cc2c1OC)CCc1cc2c(cc1-3)OCO2 [SkQB1]
Concentration in PBS as % of the concentration in 50% ethanol [6]: 63.8%
